Patent US11827628B2, “Compositions and methods for inhibition of the JAK pathway” (Rigel Pharmaceuticals, Inc., priority 2005, dated 2023)
Where two headings read alike, the source gives them in different places. Values belong to the compound of their own block, whether it stands above or below them.

Legend:
[1] = tested on: IL-4 stimulated expression of CD23 in human Ramos B cells (JAK-1 and JAK-3); experiment: Assay for Ramos B-Cell Line Stimulated with IL-4 (CD23 upregulation, FACS); type: cell-based; settings: read-out: IC50, Example 41
Summary of the method: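 Read-out: anti-CD23-PE flow cytometry on Ramos B cells, giving IC50. Cells (5×10^4 per point, RPMI + 5% serum) get compound or DMSO for 1 h at 37 °C, then IL-4 50 units/mL final for 20-24 h.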

Primary human T-cells = experiment: Primary Human T-Cell Proliferation Assay Stimulated with IL-2 (CellTiter-Glo); type: cell-based; settings: read-out: IC50, Example 42
Summary of the method: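 Peripheral blood T-cells pre-activated with anti-CD3/anti-CD28 and IL-2 were washed free of IL-2, then cultured with compound plus IL-2 for 72 hours at 37° C, duplicate wells. Viability read as ATP by CellTiter-Glo luminescence; IC50 reported.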

[2] = Ramos B-cell line stimulated with IL-4, CD23 expression by FACS
[3] = primary human T-cell proliferation stimulated with IL-2
[4] = Ramos B cells stimulated with IL-4, CD23 expression by FACS
[5] = primary human T-cells stimulated with IL-2, proliferation
[6] = Homo sapiens, Ramos, Ramos B cells stimulated with IL-4, CD23 expression by FACS
[7] = Homo sapiens, T-cell, primary human T-cells stimulated with IL-2, proliferation
[8] = Homo sapiens, Ramos, Ramos B-cell line stimulated with IL-4, CD23 expression by FACS
[9] = Homo sapiens, T-cell, primary human T-cell proliferation stimulated with IL-2

IC50 [1, 2]: 3750 nM
Compound: CCC(=O)NS(=O)(=O)c1cc(Nc2ncc(F)c(Nc3ccc(C=CC#N)c(Cl)c3)n2)ccc1C [III-28, N4-(3-Chloro-4-cyanoethylene-phenyl)-5-fluoro-N2-(4-methyl-3-propionylaminosulfonylphenyl)-2,4-pyrimidinediamine]
IC50 (Primary human T-cells; [3]): 17400 nM

IC50 [1, 4]: 523 nM
Compound: N4-(4-Acetylthiomethylcarbonylphenyl)-N2-(3-aminosulfonyl-4-methylphenyl)-5-fluoro-2,4-pyrimidinediamine [IX-43]
IC50 (Primary human T-cells; [5]): 2800 nM

IC50 [1, 6]: 236 nM
Compound: CN1C(=O)COc2ccc(Nc3nc(Nc4ccc(S(N)(=O)=O)cc4)ncc3F)cc21 [VII-40, N2-(4-Aminosulfonylphenyl)-5-fluoro-N4-(4-methyl-3-oxo-benz[1,4]oxazin-6-yl)-2,4-pyrimidinediamine]
IC50 (Primary human T-cells; [7]): 6480 nM

IC50 [1, 4]: 1940 nM
Compound: Cc1ccc(Nc2ncc(F)c(Nc3ccc(C(=O)N4CCN(S(C)(=O)=O)CC4)cc3)n2)cc1S(N)(=O)=O [IX-30, N2-(3-Aminosulfonyl-4-methylphenyl)-5-fluoro-N4-[4-(1-methanesulfonyl-4-piperizinyl)carbonylphenyl]-2,4-pyrimidinediamine]
IC50 (Primary human T-cells; [5]): 6800 nM

Compound: CC(C)(C)OC(=O)NC1CCOc2ccc(Nc3nc(Nc4ccc(S(N)(=O)=O)cc4)ncc3F)cc21 (stereo not drawn) [VII-59, N2-(4-Aminosulfonylphenyl)-N4-(4-N-tert-butoxycarbonylamino-3,4-dihydro-2H-1-benzopyran-6-yl)-5-fluoro-2,4-pyrimidinediamine]
IC50 [1, 4]: 831 nM
IC50 (Primary human T-cells; [5]): 2990 nM

IC50 [1, 8]: 114 nM
Compound: CNC(=O)COc1ccc(Nc2nc(Nc3ccc(Cl)c(S(N)(=O)=O)c3)ncc2C)cc1Cl [Compound I-153, N2-(3-Aminosulfonyl-4-chlorophenyl)-N4-(3-chloro-4-methylaminocarbonylmethoxyphenyl)-5-methyl-2,4-pyrimidinediamine]
IC50 (Primary human T-cells; [9]): 334 nM

IC50 [1, 6]: 399 nM
Compound: COc1ccc(Nc2nc(Nc3ccc(Cl)c(S(N)(=O)=O)c3)ncc2F)nc1N [VII-8, N2-(3-Aminosulfonyl-4-chlorophenyl)-N4-(2-amino-3-methoxypyrid-6-yl)-5-fluoro-2,4-pyrimidinediamine]
IC50 (Primary human T-cells; [7]): 8630 nM

IC50 [1, 8]: 154 nM
Compound: Cc1cc(Nc2nc(Nc3ccc(S(C)(=O)=O)c(N)c3)ncc2F)ccc1OCc1ccccn1 [Compound I-168, N2-(3-Amino-4-methylsulfonylphenyl)-5-fluoro-N4-[(4-((pyridin-2-yl)methoxy)-3-methylphenyl)]-2,4-pyrimidinediamine]
IC50 (Primary human T-cells; [9]): 1180 nM

IC50 [1, 2]: 461 nM
Compound: Cc1ccc(Nc2ncc(F)c(Nc3ccc(NC(=O)CC#N)cc3)n2)cc1S(N)(=O)=O [Compound I-79, N2-(3-Aminosulfonyl-4-methylphenyl)-N4-[4-(N-cyanoacetyl)aminophneyl]-5-fluoro-2,4-pyrimidinediamine]
IC50 (Primary human T-cells; [3]): 1060 nM

IC50 [1, 6]: 385 nM
Compound: Cc1ccc(Nc2ncc(F)c(Nc3cnc4ccccc4c3)n2)cc1S(N)(=O)=O [VII-65, N2-(3-Aminosulfonyl-4-methylphenyl)-5-fluoro-N4-(quinolin-3-yl)-2,4-pyrimidinediamine]
IC50 (Primary human T-cells; [7]): 3060 nM

IC50 [1, 6]: 363 nM
Compound: Cc1ccc(Nc2ncc(F)c(Nc3ccc4ccccc4n3)n2)cc1S(N)(=O)=O [VII-64, N2-(3-Aminosulfonyl-4-methylphenyl)-5-fluoro-N4-(quinolin-2-yl)-2,4-pyrimidinediamine]
IC50 (Primary human T-cells; [7]): 3810 nM

IC50 [1, 6]: 202 nM
Compound: C#CCOc1cccc(Nc2nc(Nc3ccc(C)c(S(N)(=O)=O)c3)ncc2F)c1 [VI-57, N2-(3-Aminosulfonyl-4-methylphenyl)-5-fluoro-N4-[3-(prop-2-ynyloxy)phenyl]-2,4-pyrimidinediamine]
IC50 (Primary human T-cells; [7]): 1180 nM

IC50 [1, 8]: 172 nM
Compound: NS(=O)(=O)c1cccc(Nc2ncc(F)c(Nc3ccc(Cc4ccccc4)cc3)n2)c1 [III-62, N2-(3-Aminosulfonylphenyl)-N4-(4-benzylphenyl)-5-fluoro-2,4-pyrimidinediamine]
IC50 (Primary human T-cells; [9]): 699 nM

IC50 [1, 6]: 158 nM
Compound: CC(C)(C)c1ccc(Nc2nc(Nc3cccc(S(N)(=O)=O)c3)ncc2F)cc1 [VI-35, N2-(3-Aminosulfonylphenyl)-N4-(4-tert-butylphenyl)-5-fluoro-2,4-pyrimidinediamine]
IC50 (Primary human T-cells; [7]): 1260 nM

Compound: N2-(3-Aminosulfonyl-4-methylphenyl)-N4-(4-benzylphenyl)-5-fluoro-2,4-pyrimidinediamine [III-63]
IC50 [1, 2]: 315 nM
IC50 (Primary human T-cells; [3]): 1880 nM

IC50 [1, 2]: 274 nM
Compound: CC(Oc1ccc(Nc2nc(Nc3ccc(S(N)(=O)=O)cc3)ncc2F)cc1)C(N)=O (racemic) [Compound I-116, Racemic N4-[4-(1-Aminocarbonyl)ethoxy]phenyl-N2-(4-aminosulfonyl)phenyl-5-fluoro-2,4-pyrimidinediamine]
IC50 (Primary human T-cells; [3]): 972 nM

Compound: N2-(3-Aminosulfonyl-4-methoxy-5-methylphenyl)-N4-(4-chloro-3-trifluoromethyl-phenyl)-5-fluoro-2,4-pyrimidinediamine [VI-40]
IC50 [1, 4]: 288 nM
IC50 (Primary human T-cells; [5]): 1240 nM

IC50 [1, 2]: 117 nM
Compound: NS(=O)(=O)c1cccc(Nc2ncc(F)c(Nc3ccc(OCc4ccccn4)c(Cl)c3)n2)c1 [Compound I-171, N2-(3-Aminosulfonylphenyl)-5-fluoro-N4-[4-(2-pyridinyl)-3-chloromethyleneoxyphenyl]-2,4-pyrimidinediamine]
IC50 (Primary human T-cells; [3]): 415 nM

IC50 [1, 6]: 89.2 nM
Compound: COc1ccc(Nc2nc(Nc3ccc(Cl)c(S(N)(=O)=O)c3)ncc2F)cc1Cl [VI-2, N2-(3-Aminosulfonyl-4-chlorophenyl)-N4-(3-chloro-4-methoxyphenyl)-5-fluoro-2,4-pyrimidinediamine]
IC50 (Primary human T-cells; [7]): 3570 nM

IC50 [1, 8]: 259 nM
Compound: CNC(=O)OCCc1ccc(Nc2nc(Nc3ccc(Cl)c(S(N)(=O)=O)c3)ncc2F)cc1 [III-61, N2-(3-Aminosulfonyl-4-chlorophenyl)-5-fluoro-N4-{4-[2-(methylaminocarbonyloxy)ethyl]phenyl}-2,4-pyrimidinediamine]
IC50 (Primary human T-cells; [9]): 1080 nM

IC50 [1, 2]: 162 nM
Compound: Cc1cc(CCC#N)ccc1Nc1nc(Nc2cccc(S(N)(=O)=O)c2)ncc1F [III-26, N2-(3-Aminosulfonylphenyl)-N4-(4-cyanoethylene-2-methylphenyl)-5-fluoro-2,4-pyrimidinediamine]
IC50 (Primary human T-cells; [3]): 583 nM

IC50 [1, 4]: 624 nM
Compound: CCNC(=O)NCc1cccc(Nc2nc(Nc3ccc(C)c(S(N)(=O)=O)c3)ncc2F)c1 [III-118, N2-(3-aminosulfonyl-4-methyl)phenyl-N4-(3-ethylaminocarbonylaminomethyl)phenyl-5-fluoro-2,4-pyrimidinediamine]
IC50 (Primary human T-cells; [5]): 2290 nM

IC50 [1, 4]: 286 nM
Compound: CNC(=O)N1CCCc2cc(Nc3nc(Nc4cccc(S(N)(=O)=O)c4)ncc3F)ccc21 [VII-20, N2-(3-Aminosulfonylphenyl)-5-fluoro-N4-[1-(methylaminocarbonyl)-1,2,3,4-tetrahydroquin-6-yl]-2,4-pyrimidinediamine]
IC50 (Primary human T-cells; [5]): 698 nM

IC50 [1, 8]: 155 nM
Compound: Cc1cnc(Nc2ccc(Cl)c(S(N)(=O)=O)c2)nc1Nc1ccc(OCC(=O)N(C)C)c(F)c1 [Compound I-142, N2-(3-Aminosulfonyl-4-chlorophenyl)-N4-(4-dimethylaminocarbonylmethoxy-3-fluorophenyl)-5-methyl-2,4-pyrimidinediamine]
IC50 (Primary human T-cells; [9]): 854 nM

IC50 [1, 6]: 313 nM
Compound: Cc1ccc(Nc2ncc(F)c(N[C@H]3[C@@H](C(N)=O)[C@@H]4C=C[C@H]3C4)n2)cc1S(N)(=O)=O [VII-82, (1R,2R,3S,4S)N4-(3-Aminocarbonylbicyclo[2.2.1]hept-5-en-2-yl)-N2-(3-aminosulfonyl-4-methylphenyl)-5-fluoro-2,4-pyrimidinediamine]
IC50 (Primary human T-cells; [7]): 1080 nM

IC50 [1, 8]: 542 nM
Compound: CNC(=O)COc1ccc(Nc2nc(Nc3ccc(C)c(S(N)(=O)=O)c3)ncc2F)cc1 [Compound I-145, N2-(3-Aminosulfonyl-4-methylphenyl)-5-fluoro-N4-(4-methylaminocarbonylmethoxyphenyl)-2,4-pyrimidinediamine]
IC50 (Primary human T-cells; [9]): 349 nM

IC50 [1, 8]: 601 nM
Compound: Cc1ccc(Nc2ncc(F)c(Nc3ccc(OCC(=O)N(C)C)cc3)n2)cc1S(N)(=O)=O [Compound I-130, N2-(3-Aminosulfonyl-4-methylphenyl)-N4-(4-dimethylaminocarbonylmethoxyphenyl)-5-fluoro-2,4-pyrimidinediamine]
IC50 (Primary human T-cells; [9]): 1730 nM

IC50 [1, 6]: 13.2 nM
Compound: COc1ccc(Nc2nc(Nc3cc(C)c(OC)c(S(N)(=O)=O)c3)ncc2F)cc1Cl [VI-30, N2-(3-Aminosulfonyl-4-methoxy-5-methylphenyl)-N4-(3-chloro-4-methoxyphenyl)-5-fluoro-2,4-pyrimidinediamine]
IC50 (Primary human T-cells; [7]): 170 nM

IC50 [1, 6]: 655 nM
Compound: CCNC(=O)NCc1ccc(Nc2nc(Nc3cccc(S(N)(=O)=O)c3)ncc2F)cc1 [III-120, N2-(3-Aminosulfonylphenyl]-N4-(4-ethylaminocarbonylaminomethylphenyl)-5-fluoro-2,4-pyrimidinediamine]
IC50 (Primary human T-cells; [7]): 554 nM

IC50 [1, 6]: 257 nM
Compound: CNS(=O)(=O)c1cccc(Nc2nc(Nc3ccc(C)c(S(N)(=O)=O)c3)ncc2F)c1 [IV-12, N2-(3-Aminosulfonyl-4-methylphenyl)-5-fluoro-N4-[3-(N-methylaminosulfonyl)phenyl]-2,4-pyrimidinediamine]
IC50 (Primary human T-cells; [7]): 1220 nM
